Measurements from patent publication US12077503B2, “Substituted cyclic amides and their use as herbicides” (FMC CORPORATION, priority 2015, dated 2024).

Legend:
Assay type in all cases: in vivo
[1] = test system: ivy-leaved morning glory (Ipomoea hederacea); test: Test G Pre-Emergence Protocol; details: Ipomoea, pre-emergence, 312 h, evaluated after 13 days
How it was run: (§1)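 Under a 24/16° C day/night regime with 14 h light and 65% humidity, sown pots were sprayed after one day with compound (15.625, 62.5 or 250 g/ha; 50:50 acetone/water, 0.5% Tween 20). Damage was assessed visually 13 days later, 0 to 100.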

[2] = test system: corn (Zea mays); test: Test G Pre-Emergence Protocol; details: Zea mays, pre-emergence, 312 h, evaluated after 13 days
How it was run: as §1

[3] = test system: redroot pigweed (Amaranthus retroflexus); test: Test G Pre-Emergence Protocol; details: Amaranthus retroflexus, pre-emergence, 312 h, evaluated after 13 days
How it was run: as §1

[4] = test system: barnyardgrass (Echinochloa crus-galli); test: Test G Pre-Emergence Protocol; details: Echinochloa crus-galli, pre-emergence, 312 h, evaluated after 13 days
How it was run: as §1

[5] = test system: giant foxtail (Setaria faberi); test: Test G Pre-Emergence Protocol; details: Setaria faberi, pre-emergence, 312 h, evaluated after 13 days
How it was run: as §1

[6] = test system: velvetleaf (Abutilon theophrasti); test: Test G Pre-Emergence Protocol; details: Abutilon theophrasti, pre-emergence, 312 h, evaluated after 13 days
How it was run: as §1

[7] = test system: ivy-leaved morning glory (Ipomoea hederacea); test: Test G Post-Emergence Protocol; details: Ipomoea, post-emergence, 312 h, read-out: Morningglory, Ivy-leaved damage rating
How it was run: (§2)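 Post-emergence herbicidal damage, scored visually 0–100 at 13 days. Application at 15.625, 62.5 or 250 g/ha onto 8-day-old plants grown under glasshouse control.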

[8] = test system: corn (Zea mays); test: Test G Post-Emergence Protocol; details: Zea mays, post-emergence, 312 h, read-out: Corn damage rating
How it was run: as §2

[9] = test system: redroot pigweed (Amaranthus retroflexus); test: Test G Post-Emergence Protocol; details: Amaranthus retroflexus, post-emergence, 312 h, read-out: Pigweed, Redroot damage rating
How it was run: as §2

[10] = test system: barnyardgrass (Echinochloa crus-galli); test: Test G Post-Emergence Protocol; details: Echinochloa crus-galli, post-emergence, 312 h, read-out: Barnyardgrass damage rating
How it was run: as §2

[11] = test system: giant foxtail (Setaria faberi); test: Test G Post-Emergence Protocol; details: Setaria faberi, post-emergence, 312 h, read-out: Foxtail, Giant damage rating
How it was run: as §2

[12] = test system: velvetleaf (Abutilon theophrasti); test: Test G Post-Emergence Protocol; details: Abutilon theophrasti, post-emergence, 312 h, read-out: Velvetleaf damage rating
How it was run: as §2

[13] = 15.625 g ai/ha, evaluated after 13 days (100=total damage to plant; 0=no damage to plant)
[14] = 62.5 g ai/ha, evaluated after 13 days, 100=total damage to plant, 0=no damage to plant
[15] = 250 g ai/ha, evaluated after 13 days, 100=total damage to plant, 0=no damage to plant

Cc1c[nH]nc1NC(=O)[C@@H]1C(=O)N(C)C[C@H]1c1ccc(C(F)(F)F)cc1 (racemic) [Compound 1660]
0%: pest or weed control at 15.625 g/ha ([1]; 15.625 g ai/ha, read-out: Morningglory, Ivy-leaved damage rating (100=total damage to plant; 0=no damage to plant)) | pest or weed control at 62.5 g/ha ([1]; 62.5 g ai/ha, 100=total damage to plant, 0=no damage to plant, read-out: Morningglory, Ivy-leaved damage rating) | pest or weed control at 250 g/ha ([1]; 250 g ai/ha, read-out: Morningglory, Ivy-leaved damage rating (100=total damage to plant; 0=no damage to plant)) | plant injury at 15.625 g/ha ([2]; 15.625 g ai/ha, read-out: Corn damage rating (100=total damage to plant; 0=no damage to plant)) | plant injury at 62.5 g/ha ([2]; 62.5 g ai/ha, 100=total damage to plant, 0=no damage to plant, read-out: Corn damage rating) | plant injury at 250 g/ha ([2]; 250 g ai/ha, read-out: Corn damage rating (100=total damage to plant; 0=no damage to plant)) | pest or weed control at 15.625 g/ha ([3]; 15.625 g ai/ha, read-out: Pigweed, Redroot damage rating (100=total damage to plant; 0=no damage to plant)) | pest or weed control at 62.5 g/ha ([3]; 62.5 g ai/ha, 100=total damage to plant, 0=no damage to plant, read-out: Pigweed, Redroot damage rating) | pest or weed control at 250 g/ha ([3]; 250 g ai/ha, read-out: Pigweed, Redroot damage rating (100=total damage to plant; 0=no damage to plant)) | pest or weed control at 15.625 g/ha ([4]; 15.625 g ai/ha, read-out: Barnyardgrass damage rating (100=total damage to plant; 0=no damage to plant)) | pest or weed control at 62.5 g/ha ([4]; 62.5 g ai/ha, 100=total damage to plant, 0=no damage to plant, read-out: Barnyardgrass damage rating) | pest or weed control at 250 g/ha ([4]; 250 g ai/ha, read-out: Barnyardgrass damage rating (100=total damage to plant; 0=no damage to plant)) | pest or weed control at 15.625 g/ha ([5]; 15.625 g ai/ha, read-out: Foxtail, Giant damage rating (100=total damage to plant; 0=no damage to plant)) | pest or weed control at 62.5 g/ha ([5]; 62.5 g ai/ha, 100=total damage to plant, 0=no damage to plant, read-out: Foxtail, Giant damage rating) | pest or weed control at 250 g/ha ([5]; 250 g ai/ha, read-out: Foxtail, Giant damage rating (100=total damage to plant; 0=no damage to plant)) | pest or weed control at 15.625 g/ha ([6]; 15.625 g ai/ha, read-out: Velvetleaf damage rating (100=total damage to plant; 0=no damage to plant)) | pest or weed control at 62.5 g/ha ([6]; 62.5 g ai/ha, 100=total damage to plant, 0=no damage to plant, read-out: Velvetleaf damage rating) | pest or weed control at 250 g/ha ([6]; 250 g ai/ha, read-out: Velvetleaf damage rating (100=total damage to plant; 0=no damage to plant)) | pest or weed control at 15.625 g/ha [7, 13] | pest or weed control at 62.5 g/ha [7, 14] | pest or weed control at 250 g/ha [7, 15] | plant injury at 15.625 g/ha [8, 13] | plant injury at 62.5 g/ha [8, 14] | plant injury at 250 g/ha [8, 15] | pest or weed control at 15.625 g/ha [9, 13] | pest or weed control at 62.5 g/ha [9, 14] | pest or weed control at 250 g/ha [9, 15] | pest or weed control at 15.625 g/ha [10, 13] | pest or weed control at 62.5 g/ha [10, 14] | pest or weed control at 250 g/ha [10, 15] | pest or weed control at 15.625 g/ha [11, 13] | pest or weed control at 62.5 g/ha [11, 14] | pest or weed control at 250 g/ha [11, 15] | pest or weed control at 15.625 g/ha [12, 13] | pest or weed control at 62.5 g/ha [12, 14] | pest or weed control at 250 g/ha [12, 15]
